Target: T1, Angiotensin II Receptor (Bos taurus, UniProt P25104)
T1 construct: The brownish tissue forming the adrenal cortex is scraped off and finely minced with scissors before homogenization; tissue local slaughter house (Maxwell-Cphen); host or cells: beef adrenal cortex, microsomal membranes
T1 sequence (P25104 1-359): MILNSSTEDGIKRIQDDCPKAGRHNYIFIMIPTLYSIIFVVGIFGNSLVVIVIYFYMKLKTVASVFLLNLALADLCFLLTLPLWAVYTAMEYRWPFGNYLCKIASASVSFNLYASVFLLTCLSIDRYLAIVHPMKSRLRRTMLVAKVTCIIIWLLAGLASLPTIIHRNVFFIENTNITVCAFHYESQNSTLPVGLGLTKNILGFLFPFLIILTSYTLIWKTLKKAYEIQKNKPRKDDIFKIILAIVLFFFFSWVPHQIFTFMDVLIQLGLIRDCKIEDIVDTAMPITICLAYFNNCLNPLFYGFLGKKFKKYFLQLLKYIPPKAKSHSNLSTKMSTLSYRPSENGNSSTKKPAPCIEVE
Assay: Angiotensin II receptor binding, displacement of [^125 I](Sar^1,Ile^8)AngII from beef adrenal cortex membranes
Settings: pH 7.4, 60 min, room temperature, triplicate
Description: Beef adrenals are obtained from a local slaughter house (Maxwell-Cphen). [^125 I](Sar^1,Ile^8)AngII, S.A. 2200 Ci/mmole, is purchased from Dupont (NEN®, Boston, Mass.). All unlabeled AngII analogs, Dimethylsulfoxide (DMSO), nucleotides, bovine serum albumin (BSA) are purchased from Sigma Chemical Co., St. Louis, Mo. U.S.A.
Approximately sixteen (16) to twenty (20) beef adrenal glands are processed as follows: fresh adrenal glands received on crushed ice are cleaned of fatty tissues and the tough membranes encapsulating the glands are removed and discarded. The brownish tissue forming the adrenal cortex is scraped off and finely minced with scissors before homogenization. Care is taken to avoid contamination with medullary tissue during dissection. The scraped cortices are suspended in twenty volumes of an ice-cold buffer medium consisting of 10 mM Tris.HCl (pH 7.4 at 22° C.) and containing 1.0 mM EDTA and 0.2 M sucrose. Unless otherwise indicated, all subsequent operations are done at 4° C. […] This P2 pellet is discarded and the liquid phase is carefully decanted off in clean centrifuge tubes and recentrifuged at high speed ([…]) […] the protein content of the preparation is determined by the Lowry's method (Lowry, O. H., Rosebrough, N. F., Farr, A. L. and Randall, R. J., Protein measurement with Folin phenol reagent. J. Biol. Chem., […], 265-275, 1951). […]

- IC50: 0.034 µM
Structure (SMILES): CCCCc1nc(Cl)c([C@@]2(C)C[C@@H]3CCCN3O2)n1Cc1ccc(-c2ccccc2-c2nn[nH]n2)cc1 (racemic) [Example 8, Cis-(+/-)-2-[2-Butyl-4-chloro-1-[[2'-(1H-tetrazol-5-yl)[1,1'-biphenyl]-4-yl]methyl]-1H-imidazol-5-yl]hexahydro-2-methyl-pyrrolo[1,2-b]isoxazole]

From patent publication US5298517A, “Angiotensin II receptor blocking agents” (American Cyanamid Company, priority 1993, dated 1994)
